For orientation: half-life means how long it takes for the measured level to halve. High values mean slow decline, low ones rapid decline.

The values below come from US20260217767A1, “NOVEL A4B7 THIOETHER PEPTIDE DIMER ANTAGONISTS” (Protagonist Therapeutics, Inc., priority 2014, published 2026).

SMILES strings stand for the structures. *1 amine or outer side, *2 acyl side, *3 side chain or, on linkers, in order; H or OH if unused. Where a SMILES comes first, the peptide text is derived from it. Bridges are numbered along the chain shown (N, C = ends). [ ]: non-standard residue; d: D form. Phe(3-Me) = Cc1cccc(C[C@H](N)C(=O)O)c1; Phe(4-Me) = Cc1ccc(C[C@H](N)C(=O)O)cc1; Phe(2-Me) = Cc1ccccc1C[C@H](N)C(=O)O; NMeR = CN[C@@H](CCCNC(=N)N)C(=O)O; β3hE = N[C@@H](CCC(=O)O)CC(=O)O; X1 = O=C(c1ccccc1C[*:2])[*:1]; Pen = CC(C)(S)[C@H](N)C(=O)O

The nature of data set [1]: Simulated Intestinal Fluid (SIF) Stability Assay. The format is in vitro ADME. The conditions noted are these: porcine pancreatin, 37° C. As to the method:
Simulated Intestinal Fluid (SIF) Stability Assay
Studies were carried out in simulated intestinal fluid (SIF) to evaluate intestinal stability of the peptide molecules of the instant invention. To prepare the SIF reagent, blank FASSIF was prepared by dissolving 0.348 g NaOH, 3.954 g sodium phosphate monobasic monohydrate and 6.186 g NaCl in a final volume of 1 liter water (final pH=6.5). To this solution, 24 g porcine pancreatin (Sigma catalog P7545) was added and stirred for 30 minutes (final pancreatin concentration is 2.4%). The solution was filtered through a cheese cloth and a No. 1 Whatman filter, and 10 ml aliquots were stored at −70° C. To run the reaction, a 10 ml aliquot was thawed at 37° C., and 125 μl aliquots were removed and mixed with an equal volume of blank FASSIF. The peptide stock solution (10 mM in 100% DMSO) was diluted 75-fold in blank FASSIF. A 50 μl aliquot of the diluted peptide was combined with 125 μl pancreatin (2.4%) and 125 μl blank FASSIF to yield final concentrations of 1% pancreatin and 22 μM peptide. The reactions were incubated at 37° C., and at various time points 50 μl aliquots were removed and added to 200 μl of quench solution containing 50% acetonitrile, 50% methanol, 5% formic acid, and 1 μg/ml internal standard. The quenched samples were centrifuged at 10,000 rpm for 10 minutes, and the supernatants were analyzed by LCMS/MS. The percent remaining at each time point was calculated based on the peak area response ratio of test to compound to internal standard. Half-lives were calculated by fitting to a first-order exponential decay equation using GraphPad. A small sampling of the results of these studies is provided and discussed herein and in the accompanying figures.

A further data set deals with T1, RPMI 8866 cells (Homo sapiens, UniProt P13612+P26010).
T1 sequence (P13612 34-1032): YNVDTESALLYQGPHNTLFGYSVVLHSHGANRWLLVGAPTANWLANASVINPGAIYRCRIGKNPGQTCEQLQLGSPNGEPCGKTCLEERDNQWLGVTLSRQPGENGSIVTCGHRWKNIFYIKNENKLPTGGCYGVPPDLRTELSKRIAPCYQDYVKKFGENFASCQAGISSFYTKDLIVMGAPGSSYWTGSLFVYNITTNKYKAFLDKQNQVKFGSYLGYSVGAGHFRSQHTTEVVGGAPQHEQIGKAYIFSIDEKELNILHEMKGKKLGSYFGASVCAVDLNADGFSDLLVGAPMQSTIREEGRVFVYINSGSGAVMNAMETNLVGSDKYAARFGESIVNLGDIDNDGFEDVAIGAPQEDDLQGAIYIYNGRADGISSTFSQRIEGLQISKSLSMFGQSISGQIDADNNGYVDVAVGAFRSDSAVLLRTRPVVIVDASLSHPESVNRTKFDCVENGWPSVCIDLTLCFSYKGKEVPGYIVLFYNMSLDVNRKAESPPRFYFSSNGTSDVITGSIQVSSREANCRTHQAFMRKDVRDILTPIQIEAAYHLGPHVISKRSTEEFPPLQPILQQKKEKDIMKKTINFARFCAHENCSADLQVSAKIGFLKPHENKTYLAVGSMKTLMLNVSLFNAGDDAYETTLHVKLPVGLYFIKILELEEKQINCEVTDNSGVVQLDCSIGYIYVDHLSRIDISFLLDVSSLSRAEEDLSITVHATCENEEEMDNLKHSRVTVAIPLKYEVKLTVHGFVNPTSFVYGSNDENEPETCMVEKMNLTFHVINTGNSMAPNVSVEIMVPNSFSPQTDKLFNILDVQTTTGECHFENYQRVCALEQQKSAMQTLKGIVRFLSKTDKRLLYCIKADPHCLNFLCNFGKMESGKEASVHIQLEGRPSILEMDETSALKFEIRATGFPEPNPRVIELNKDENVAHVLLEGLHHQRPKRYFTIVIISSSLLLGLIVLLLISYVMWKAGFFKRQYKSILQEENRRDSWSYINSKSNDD
T1 sequence (P26010 20-798): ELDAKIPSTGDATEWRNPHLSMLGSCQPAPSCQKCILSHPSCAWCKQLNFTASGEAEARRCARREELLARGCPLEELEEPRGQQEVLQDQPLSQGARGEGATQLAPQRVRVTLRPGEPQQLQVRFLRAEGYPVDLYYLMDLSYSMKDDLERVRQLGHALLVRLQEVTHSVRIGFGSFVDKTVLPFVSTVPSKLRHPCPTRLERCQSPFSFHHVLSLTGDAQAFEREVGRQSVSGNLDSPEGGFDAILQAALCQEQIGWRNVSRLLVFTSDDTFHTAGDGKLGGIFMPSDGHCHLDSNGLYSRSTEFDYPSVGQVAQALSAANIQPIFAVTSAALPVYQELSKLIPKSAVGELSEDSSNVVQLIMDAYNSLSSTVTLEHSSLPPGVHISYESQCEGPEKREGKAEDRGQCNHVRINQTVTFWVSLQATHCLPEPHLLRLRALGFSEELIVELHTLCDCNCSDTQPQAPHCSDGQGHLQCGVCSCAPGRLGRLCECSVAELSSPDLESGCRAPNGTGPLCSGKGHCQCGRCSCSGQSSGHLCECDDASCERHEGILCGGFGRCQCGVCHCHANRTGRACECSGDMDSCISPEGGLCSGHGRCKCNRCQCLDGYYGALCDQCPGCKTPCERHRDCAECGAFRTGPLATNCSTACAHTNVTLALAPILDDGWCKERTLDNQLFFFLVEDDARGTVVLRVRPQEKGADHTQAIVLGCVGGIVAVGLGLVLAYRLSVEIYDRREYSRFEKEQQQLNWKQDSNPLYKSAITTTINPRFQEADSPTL
Nature of the data set: α4β7-MAdCAM Cell Adhesion Assay. The conditions noted are these: thioether monomer peptides, Table 6; read-out: Cell-Adhesion A4B7. The format is cell-based. The method in brief: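 RPMI 8866 cells (200,000/well) in DMEM with 1 mM MnCl2 and 0.1% BSA were allowed to adhere 30-45 min at 37° C to plates coated with rh MAdCAM-1/Fc (200 ng/well) in presence of serially diluted peptide. After washing, bound cells quantified by MTT, absorbance 570 nm, cell-free background subtracted.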

The mark [2] stands for this setting: simulated gi fluid, monomers, Table 6.
Where [3] appears, read: simulated gi fluid, dimers, Table 7.

On to `CC(C)C[C@@H]1NC(=O)[C@H]([C@@H](C)O)NC(=O)[C@H](CC(=O)O)NC(=O)[C@H](CO)NC(=O)[C@H](CCCNC(=N)N)N(C)C(=O)c2ccccc2CSC(C)(C)[C@@H](C(=O)N[C@@H](Cc2c[nH]c3ccccc23)C(=O)N[C@H](CCC(=O)O)C(=O)N[C@H](CCCCN)C(N)=O)NC1=O` [compound 60] (HELM PEPTIDE1{[meR].S.D.T.L.[Pen].W.[dE].[dK].[am]}|CHEM1{[O=C(c1ccccc1C[*:2])[*:1]]}$PEPTIDE1,CHEM1,1:R1-1:R1|PEPTIDE1,CHEM1,6:R3-1:R2$$$V2.0), for which the half-life in data set [1] (setting [2]) was over 180 min.
For the molecule `CC(C)C[C@@H]1NC(=O)[C@H]([C@@H](C)O)NC(=O)[C@H](CC(=O)O)NC(=O)[C@H](CO)NC(=O)[C@H](CCCNC(=N)N)N(C)C(=O)c2ccccc2CSC(C)(C)[C@@H](C(=O)N[C@@H](Cc2c[nH]c3ccccc23)C(=O)N[C@@H](Cc2ccc(O)cc2)C(=O)N(C)[C@@H](CCCCN)C(N)=O)NC1=O` [compound 63] (HELM PEPTIDE1{[meR].S.D.T.L.[Pen].W.Y.[meK].[am]}|CHEM1{[O=C(c1ccccc1C[*:2])[*:1]]}$PEPTIDE1,CHEM1,1:R1-1:R1|PEPTIDE1,CHEM1,6:R3-1:R2$$$V2.0), the half-life in data set [1] (setting [2]) is over 180 min.
Same read-out and setting: then `CCCC[C@@H]1NC(=O)[C@H]([C@@H](C)O)NC(=O)[C@H](CC(=O)O)NC(=O)[C@H](CO)NC(=O)[C@H](CCCNC(=N)N)N(C)C(=O)c2ccccc2CSC(C)(C)[C@@H](C(=O)N[C@@H](Cc2c[nH]c3ccccc23)C(=O)N[C@@H](CCC(=O)O)C(=O)N[C@H](CCCCN)C(N)=O)NC1=O` [compound 64] (HELM PEPTIDE1{[meR].S.D.T.[Nle].[Pen].W.E.[dK].[am]}|CHEM1{[O=C(c1ccccc1C[*:2])[*:1]]}$PEPTIDE1,CHEM1,1:R1-1:R1|PEPTIDE1,CHEM1,6:R3-1:R2$$$V2.0), with 179 min; and `CC(C)C[C@@H]1NC(=O)[C@H]([C@@H](C)O)NC(=O)[C@H](CC(=O)O)NC(=O)[C@H](CO)NC(=O)[C@H](CCCNC(=N)N)N(C)C(=O)c2ccccc2CSC(C)(C)[C@@H](C(=O)N[C@@H](Cc2ccccc2)C(=O)N[C@H](CCC(=O)O)C(=O)N[C@H](CCCCN)C(N)=O)NC1=O` [compound 65] (HELM PEPTIDE1{[meR].S.D.T.L.[Pen].F.[dE].[dK].[am]}|CHEM1{[O=C(c1ccccc1C[*:2])[*:1]]}$PEPTIDE1,CHEM1,1:R1-1:R1|PEPTIDE1,CHEM1,6:R3-1:R2$$$V2.0), with over 180 min.
As to `Cc1cccc(C[C@H](NC(=O)[C@H]2NC(=O)[C@H](CC(C)C)NC(=O)[C@H]([C@@H](C)O)NC(=O)[C@H](CC(=O)O)NC(=O)[C@H](CO)NC(=O)[C@H](CCCNC(=N)N)N(C)C(=O)c3ccccc3CSC2(C)C)C(=O)N[C@@H](CCC(=O)O)CC(N)=O)c1` [compound 125] ([NMeR]SDTL[Pen][Phe(3-Me)][β3hE]-NH2; linker N-6 via X1), in data set [1] (pig, monomers, Table 6), the half-life is over 180 min. For the same molecule, the IC50 on RPMI 8866 cells was under 25 nM.
Taken in the same sequence, the figures for `Cc1ccccc1C[C@H](NC(=O)[C@H]1NC(=O)[C@H](CC(C)C)NC(=O)[C@H]([C@@H](C)O)NC(=O)[C@H](CC(=O)O)NC(=O)[C@H](CO)NC(=O)[C@H](CCCNC(=N)N)N(C)C(=O)c2ccccc2CSC1(C)C)C(=O)N[C@@H](CCC(=O)O)CC(N)=O` [compound 126] ([NMeR]SDTL[Pen][Phe(2-Me)][β3hE]-NH2; linker N-6 via X1) were over 180 min and 25 to 100 nM.
In the same order, the values of `Cc1ccc(C[C@H](NC(=O)[C@H]2NC(=O)[C@H](CC(C)C)NC(=O)[C@H]([C@@H](C)O)NC(=O)[C@H](CC(=O)O)NC(=O)[C@H](CO)NC(=O)[C@H](CCCNC(=N)N)N(C)C(=O)c3ccccc3CSC2(C)C)C(=O)N[C@@H](CCC(=O)O)CC(N)=O)cc1` [compound 132] ([NMeR]SDTL[Pen][Phe(4-Me)][β3hE]-NH2; linker N-6 via X1) are over 180 min and under 25 nM.
`CC(C)C[C@@H]1NC(=O)[C@H]([C@@H](C)O)NC(=O)[C@H](CC(=O)O)NC(=O)[C@H](CO)NC(=O)[C@H](CCCNC(=N)N)N(C)C(=O)c2ccccc2CSC(C)(C)[C@@H](C(=O)N[C@@H](Cc2c[nH]c3ccccc23)C(=O)N[C@@H](CCC(=O)O)C(=O)N[C@H](CCCCN)C(N)=O)NC1=O` [compound 146] (HELM PEPTIDE1{[meR].S.D.T.L.[Pen].W.E.[dK].[am]}|CHEM1{[O=C(c1ccccc1C[*:2])[*:1]]}$PEPTIDE1,CHEM1,1:R1-1:R1|PEPTIDE1,CHEM1,6:R3-1:R2$$$V2.0) gave a half-life in data set [1] (setting [3]) of under 20 min.
Consider `CC(C)C[C@@H]1NC(=O)[C@H]([C@@H](C)O)NC(=O)[C@H](CC(=O)O)NC(=O)[C@H](CO)NC(=O)[C@H](CCCNC(=N)N)N(C)C(=O)c2ccccc2CSC(C)(C)[C@@H](C(=O)N[C@@H](Cc2c[nH]c3ccccc23)C(=O)N[C@@H](Cc2ccc(O)cc2)C(=O)N(C)[C@@H](CCCCN)C(N)=O)NC1=O` [compound 153] (HELM PEPTIDE1{[meR].S.D.T.L.[Pen].W.Y.[meK].[am]}|CHEM1{[O=C(c1ccccc1C[*:2])[*:1]]}$PEPTIDE1,CHEM1,1:R1-1:R1|PEPTIDE1,CHEM1,6:R3-1:R2$$$V2.0), for which the half-life in data set [1] (setting [3]) is over 180 min.
Regarding `CCCC[C@@H]1NC(=O)[C@H]([C@@H](C)O)NC(=O)[C@H](CC(=O)O)NC(=O)[C@H](CO)NC(=O)[C@H](CCCNC(=N)N)N(C)C(=O)c2ccccc2CSC(C)(C)[C@@H](C(=O)N[C@@H](Cc2c[nH]c3ccccc23)C(=O)N[C@@H](CCC(=O)O)C(=O)N[C@H](CCCCN)C(N)=O)NC1=O` [compound 154] (HELM PEPTIDE1{[meR].S.D.T.[Nle].[Pen].W.E.[dK].[am]}|CHEM1{[O=C(c1ccccc1C[*:2])[*:1]]}$PEPTIDE1,CHEM1,1:R1-1:R1|PEPTIDE1,CHEM1,6:R3-1:R2$$$V2.0), the half-life in data set [1] (setting [3]) is under 20 min.
